Source: US12319640B2, “Cyclic diones as herbicidal compounds” (SYNGENTA CROP PROTECTION AG, priority 2019, dated 2025)

Tests used:
Experiment in all cases: Glasshouse herbicide test, pre- and post-emergence
Type in all cases: in vivo
Avena fatua (AVEFA) = conditions: 250 g/h, evaluated after 13 days, five-point scale; for percentage damage caused to the plant, AVEFA POST: post-emergence; for percentage damage caused to the plant, AVEFA PRE: pre-emergence
Method in brief: (§1)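 Percentage plant damage, scored 13 days after treatment as 5=80-100%, 4=60-79%, 3=40-59%, 2=20-39%, 1=0-19%. Spray of 250 g/h in acetone/water 50:50 plus 0.5% Tween 20 went on one day (pre-emergence) or eight days (post-emergence) after sowing.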

[1] = test system: Alopecurus myosuroides (ALOMY); conditions: 250 g/h, evaluated after 13 days, five-point scale; for percentage damage caused to the plant, ALOMY POST: post-emergence; for percentage damage caused to the plant, ALOMY PRE: pre-emergence
Method in brief: as §1

Setaria faberi (SETFA) = conditions: 250 g/h, evaluated after 13 days, five-point scale; for percentage damage caused to the plant, SETFA POST: post-emergence; for percentage damage caused to the plant, SETFA PRE: pre-emergence
Method in brief: as §1

[2] = test system: Echinochloa crus-galli (ECHCG); conditions: 250 g/h, evaluated after 13 days, five-point scale; for percentage damage caused to the plant, ECHCG POST: post-emergence; for percentage damage caused to the plant, ECHCG PRE: pre-emergence
Method in brief: as §1

Lolium perenne (LOLPE) = conditions: 250 g/h, evaluated after 13 days, five-point scale; for percentage damage caused to the plant, LOLPE POST: post-emergence; for percentage damage caused to the plant, LOLPE PRE: pre-emergence
Method in brief: as §1

SMILES	percentage damage caused to the plant, AVEFA POST (Avena fatua (AVEFA))	percentage damage caused to the plant, AVEFA PRE (Avena fatua (AVEFA))	percentage damage caused to the plant, ALOMY POST [1]	percentage damage caused to the plant, ALOMY PRE [1]	percentage damage caused to the plant, SETFA POST (Setaria faberi (SETFA))	percentage damage caused to the plant, SETFA PRE (Setaria faberi (SETFA))	percentage damage caused to the plant, ECHCG POST [2]	percentage damage caused to the plant, ECHCG PRE [2]	percentage damage caused to the plant, LOLPE POST (Lolium perenne (LOLPE))	percentage damage caused to the plant, LOLPE PRE (Lolium perenne (LOLPE))
Cc1cc(-c2ccc(C#N)cn2)cc(C)c1C1C(=O)CC2(CCC(NC(=O)C3CC3)CC2)CC1=O (centres unmarked) [Compound 2.029]	5 (5=80-100%)	4 (4=60-79%)	5 (5=80-100%)	2 (2=20-39%)	5 (5=80-100%)	5 (5=80-100%)	5 (5=80-100%)	5 (5=80-100%)	5 (5=80-100%)	5 (5=80-100%)
CC(=O)NC1CCC2(CC1)CC(=O)C(c1c(C)cc(-c3ccc(C#N)cn3)cc1C)C(=O)C2 (centres unmarked) [Compound 2.030]	5 (5=80-100%)	5 (5=80-100%)	5 (5=80-100%)	4 (4=60-79%)	5 (5=80-100%)	5 (5=80-100%)	5 (5=80-100%)	5 (5=80-100%)	5 (5=80-100%)	5 (5=80-100%)
CC(=O)NC1CCC2(CC1)CC(=O)C(c1c(C)cc(-c3ncc(F)cc3F)cc1C)C(=O)C2 (centres unmarked) [Compound 2.031]	5 (5=80-100%)	5 (5=80-100%)	5 (5=80-100%)	5 (5=80-100%)	5 (5=80-100%)	5 (5=80-100%)	5 (5=80-100%)	5 (5=80-100%)	5 (5=80-100%)	5 (5=80-100%)
CC(=O)NC1CCC2(CC1)CC(=O)C(c1c(C)cc(-c3ccc(F)cn3)cc1C)C(=O)C2 (centres unmarked) [Compound 2.032]	5 (5=80-100%)	4 (4=60-79%)	5 (5=80-100%)	5 (5=80-100%)	5 (5=80-100%)	5 (5=80-100%)	5 (5=80-100%)	5 (5=80-100%)	5 (5=80-100%)	5 (5=80-100%)
CC#Cc1cc(C)c(C2=C(OC(=O)OC)CC3(CCC(C(=O)NC)CC3)CC2=O)c(C)c1 (centres unmarked) [Compound P1.001]	5 (5=80-100%)	5 (5=80-100%)	5 (5=80-100%)	5 (5=80-100%)	5 (5=80-100%)	5 (5=80-100%)	5 (5=80-100%)	5 (5=80-100%)	5 (5=80-100%)	5 (5=80-100%)
